Article PMC8494734 (Scientific Reports, 2021)

What was measured:
[1] = target: T1, recombinant NirK protein (MRA2164) (Mycobacterium tuberculosis, UniProt A5U4H6); assay: biochemical; details: read-out: % inhibition at 5 mM
T1 construct: gene yfiH

[2] = target: T1, recombinant NirK protein (MRA2164)
O=NO = assay: purified protein; details: pH 7.0; 37.0 °C

T1 sequence (A5U4H6 entry or part of it): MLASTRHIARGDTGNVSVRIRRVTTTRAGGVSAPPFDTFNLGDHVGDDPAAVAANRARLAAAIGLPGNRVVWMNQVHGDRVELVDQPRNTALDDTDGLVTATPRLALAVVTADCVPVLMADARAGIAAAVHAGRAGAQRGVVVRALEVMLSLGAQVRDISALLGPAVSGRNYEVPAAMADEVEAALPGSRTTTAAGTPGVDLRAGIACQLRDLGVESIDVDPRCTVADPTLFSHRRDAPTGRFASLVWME

| Molecule | % inhibition at 5 mM [2] [%] | also measured |
| --- | --- | --- |
| NC(=O)C1=CN([C@@H]2O[C@H](COP(=O)(O)OP(=O)(O)OC[C@H]3O[C@@H](n4cnc5c(N)ncnc54)[C@H](O)[C@@H]3O)[C@@H](O)[C@H]2O)C=CC1 [NADH] | – | inhibition at 5000 µM [1]: 92.3% |
| [N-]=[N+]=[N-] [azide] | 95.16 | – |
| O=[N+]([O-])O [nitrate] | 47.40 | – |
| recombinant NirK protein (MRA2164) (Mycobacterium tuberculosis H37Ra) | – | Km (O=NO): 17.16 mM |
